Data reported in PMC9545781 (British Journal of Clinical Pharmacology, 2022).
Values joined by “and” are separate entries in the source; they are usually repeats but may differ in a detail not shown here. Equal values may be shown once. “Also recorded” adds a separate entry of the source. Read-outs that look alike come from different tables or passages of the source. Each block holds one compound with its values, some of them ahead of it.

Tests used:
[1] = in vitro; settings: plasma, pH 7.4
Experimental: (§1) Plasma protein binding was measured by equilibrium dialysis using 96‐well plate blocks with 2 compartments separated by a vertical cylinder of dialysis membrane (molecular weight cut off ~8000 Da; ThermoFisher Scientific). […] The unit was covered and incubated at 37°C on an orbital shaker for 4 hours. After incubation, samples from both plasma (bound) chamber and the buffer (free) chamber were taken and matrix‐matched by addition of the alternative blank matrix. Acetonitrile containing internal standard was added to all samples. […] The ratio of responses in free to bound samples equates to the free fraction.

[2] = parameters: method as in PMID 19541954; settings: cited from earlier work
[3] = tested on: TSPO; settings: cited from earlier work
[4] = Plasma protein binding by equilibrium dialysis; settings: plasma spiked at 1 μM, 37°C, 4 hours, mean (SEM)
Experimental: as §1

[5] = Open-label clinical pharmacokinetic study of oral XBD173 and etifoxine in healthy volunteers (plasma LC-MSMS); format: in vivo, human; settings: for AUClast / concentration at 30 min / concentration at 60 min / concentration at 120 min / concentration at 180 min / concentration at 240 min / AUC(0-t) / Cmax / Tmax / AUC0‐4 h / AUC: plasma; for Adverse events: 4 healthy volunteers, XBD173 90 mg once daily 7 days and etifoxine 50 mg TDS 7 days; for concentration at 30 min / concentration at 60 min / concentration at 120 min / concentration at 180 min / concentration at 240 min / AUC(0-t) / Cmax / Tmax / AUC: human, po; for AUC: read-out: AUC0‐4 h
Experimental: This was a single centre, open‐label study enrolling 4 adult healthy volunteers (aged 35–65 y) irrespective of rs6971 genotype. Detailed inclusion and exclusion criteria are shown in the supplementary information. […] As a precaution, therefore, a long washout period was chosen. The first dose was taken at the clinical research facility and the participant was monitored for 4 hours. Subsequent doses were taken at home by the participant. On day 7, the participant returned for a final assessment. […] The PI of the study was Paul M. Matthews (DPhil, FRCP, FMedSci) who is an author on the manuscript.
Plasma samples for pharmacokinetic analysis were obtained on day 1 at 0.5, 1, 2, 3, 4 hours following the first dose. […] Plasma samples were stored at −20°C or lower until analysis. Plasma samples (25 μL) were prepared for analysis by protein precipitation with acetonitrile containing internal standard (tolbutamide; 200 μL) followed by mixing (150 rpm, 15 min) and centrifugation (1500 g, 15 min). The supernatant (50) μL was diluted with water (100 μL) and mixed (100 rpm, 15 min). […] Injection volume was 1 μL.

[6] = tested on: TSPO; assay: Estimates of TSPO occupancy from plasma concentration and binding affinity; parameters: species or system human; settings: 90 mg oral XBD173
[7] = tested on: TSPO; settings: cited from earlier work; remark: listed apart in the source
[8] = tested on: experimental autoimmune encephalomyelitis mouse model; settings: cited from earlier work
[9] = Solubility limitation of etifoxine in binding assay; format: physicochemical; settings: assay buffer pH 7.4
Experimental: The specific binding component was determined using unlabelled PK11195 (10µM). Following incubation, assays were terminated via filtration through Whatman GF/B filters, followed by 3 x 1 ml washes with ice-cold wash buffer (50mM Tris Base, 1.4mM MgCl2, pH 7.4, 4 °C). Whatman GF/B filters were pre-incubated with 0.05% polyethyleneimine (60min) before filtration. Scintillation fluid (4ml/vial, Perkin Elmer Ultima Gold MV) was added and vials counted on a Perkin Elmer Tricarb 2900 liquid scintillation counter. For each donor, each point was performed in quadruplicate. Ki (nM) values were determined using GraphPad Prism 8.1 software (GraphPad Software Inc, USA).

[10] = tested on: γ‐aminobutyric acid‐a receptor; settings: cited from earlier work
[11] = target: TSPO (Homo sapiens, UniProt P30536); assay: Competition radioligand binding with [3H]PK11195 in human brain membranes
Experimental: The assay was terminated via filtration through Whatman GF/B filters. Scintillation fluid (4 mL/vial, Perkin Elmer Ultima‐Gold MV) was added and vials counted on a Perkin Elmer Tricarb 2900 liquid scintillation counter.
Tissue was obtained from 8 donors from the UK Multiple Sclerosis (MS) Tissue Bank at Imperial College. […] The tissue was stored at -80 °C until use.
Tissue blocks were homogenised in 10 times weight for volume (w/v) buffer (0.32mM sucrose, 5mM Tris base, 1mM MgCl2, pH 7.4, 4 °C). Homogenates were centrifuged (32,000g, 20min, 4 °C) followed by removal of the supernatant. Pellets were re-suspended in at least 10 times w/v buffer (50mM Tris base, 1mM MgCl2, pH 7.4, 4 °C) followed by two washes by centrifugation (32,000g, 20min, 4 °C). Membranes were suspended in buffer (50mM Tris base, 1mM MgCl2, pH 7.4, 4 °C) at a protein concentration of approximately 4 mg protein/ml and aliquots were stored at -80 °C until use.
All competition data were analysed using the iterative non-linear regression curve fitting software supplied with GraphPad Prism 8.1. A single site competition model was fitted to the data using the least squares algorithm. […] Data are expressed as the mean ± standard error of the mean (SEM). The Student’s t-test (GraphPad Prism 8.1) was used to determine statistical significance.

[12] = target: γ‐aminobutyric acid‐a receptor; settings: rodent brain; cited from earlier work
[13] = 90 mg, 90mg XBD173 single oral dose, participant 2
[14] = 90 mg, 90mg XBD173 single oral dose, Mean (SEM)
[15] = 90 mg, 90mg XBD173 single oral dose, participant 1
[16] = 90 mg, 90mg XBD173 single oral dose, participant 3
[17] = 90 mg, 90mg XBD173 single oral dose, participant 4
[18] = 90 mg, 90 mg XBD173 single oral dose, Median of 4 participants
[19] = 90 mg, 90 mg XBD173 single oral dose, participant 1
[20] = 90 mg, 90 mg XBD173 single oral dose, participant 2
[21] = 90 mg, 90 mg XBD173 single oral dose, participant 3
[22] = 90 mg, 90 mg XBD173 single oral dose, participant 4
[23] = 50 mg, 50mg etifoxine single oral dose, participant 2
[24] = 50 mg, 50mg etifoxine single oral dose, Mean (SEM)
[25] = 50 mg, 50mg etifoxine single oral dose, participant 3
[26] = 50 mg, 50mg etifoxine single oral dose, participant 4
[27] = 50 mg, 50mg etifoxine single oral dose, participant 1
[28] = 50 mg, 50 mg etifoxine single oral dose, Median of 4 participants
[29] = 50 mg, 50 mg etifoxine single oral dose, participant 1
[30] = 50 mg, 50 mg etifoxine single oral dose, participant 2
[31] = 50 mg, 50 mg etifoxine single oral dose, participant 3
[32] = 50 mg, 50 mg etifoxine single oral dose, participant 4

Sequence of TSPO (Homo sapiens, UniProt P30536) (P30536 2-169): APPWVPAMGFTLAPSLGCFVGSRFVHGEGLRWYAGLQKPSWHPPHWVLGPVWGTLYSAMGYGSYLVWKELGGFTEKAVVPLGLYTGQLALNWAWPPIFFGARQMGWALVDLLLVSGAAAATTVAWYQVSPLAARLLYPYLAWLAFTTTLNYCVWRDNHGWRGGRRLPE

fraction unbound at 4 h, 1 μM [1]: 0.0034
Fraction in plasma bound [4]: 99.66%
AUClast ([5]; 90 mg XBD173 single oral dose, Max of 4 participants): 556 ng·h/mL
AUClast ([5]; 90 mg XBD173 single oral dose, Min of 4 participants): 74 ng·h/mL
Estimate of plasma concentration (total) ([5]; 90 mg oral XBD173): ~ 320 nM
concentration at 30 min [5, 13]: 5.7 ng/mL
concentration at 60 min [5, 14]: 31.2 ng/mL
concentration at 60 min [5, 15]: 28.4 ng/mL
concentration at 60 min [5, 13]: 15.4 ng/mL
concentration at 60 min [5, 16]: 62.7 ng/mL
concentration at 60 min [5, 17]: 18.4 ng/mL
concentration at 120 min [5, 14]: 106 ng/mL
concentration at 120 min [5, 15]: 55.8 ng/mL
concentration at 120 min [5, 13]: 24.2 ng/mL
concentration at 120 min [5, 16]: 263 ng/mL
concentration at 120 min [5, 17]: 82.7 ng/mL
concentration at 180 min [5, 14]: 99.7 ng/mL
concentration at 180 min [5, 15]: 43.3 ng/mL
concentration at 180 min [5, 13]: 23 ng/mL
concentration at 180 min [5, 16]: 161 ng/mL
concentration at 180 min [5, 17]: 171 ng/mL
concentration at 240 min [5, 14]: 87.6 ng/mL
concentration at 240 min [5, 15]: 40.4 ng/mL
concentration at 240 min [5, 13]: 24.5 ng/mL
concentration at 240 min [5, 16]: 139 ng/mL
concentration at 240 min [5, 17]: 146 ng/mL
AUC(0-t) [5, 18]: 247 ng·h/mL
Cmax [5, 18]: 114 ng/mL
Tmax [5, 18]: 2.5 h
AUC(0-t) [5, 19]: 148 ng·h/mL
Cmax [5, 19]: 56 ng/mL
Tmax [5, 19]: 2 h
AUC(0-t) [5, 20]: 74 ng·h/mL
Cmax [5, 20]: 25 ng/mL
Tmax [5, 20]: 4 h
AUC(0-t) [5, 21]: 556 ng·h/mL
Cmax [5, 21]: 263 ng/mL
Tmax [5, 21]: 2 h
AUC(0-t) [5, 22]: 345 ng·h/mL
Cmax [5, 22]: 171 ng/mL
Tmax [5, 22]: 3 h
Predicted TSPO occupancy ([6]; from free plasma concentration, in HABs): ~ 30%
Predicted TSPO occupancy from total plasma concentration ([6]; total plasma concentration ~320 nM): > 99%
SMILES: CCN(Cc1ccccc1)C(=O)Cn1c(=O)n(C)c2cnc(-c3ccccc3)nc21 [XBD173]
Peak plasma concentrations ([2]; 90‐mg dose): micromolar range
Plasma concentration reached ([2]; 90‐mg dose): 1000 nM
Accumulation on repeated dosing [2]: does not accumulate
Affinity for TSPO in the human brain [3]: 2 to 3 nM
Adverse events [5]: No adverse events were reported

SMILES: CCNC1=Nc2ccc(Cl)cc2C(C)(c2ccccc2)O1 (centres unmarked) [etifoxine]
Binding affinity for TSPO ([7]; rodent heart): 22.5 µM
Binding affinity for TSPO ([7]; rodent kidney): 14 µM and 9 µM
Clinical scores [8]: improved clinical scores
Highest concentration that could be studied due to limitations of solubility [9]: ≤ 30 µM
Concentration above which pharmacodynamic actions at the receptor are elicited [10]: above 1 μM
Ki ([11]; read-out: Affinity of etifoxine for TSPO estimated here, value used for the occupancy estimate): 7.6 µM
Ki ([11]; read-out: Estimated Ki for the whole population, single site binding curve, human brain tissue, 8 donors (4 HABs, 4 LABs), 95% CI 4.5–14.6 μM, competition curve did not fully plateau): 7.8 µM and ~7.8 µM
Ki ([11]; read-out: Mean Ki, human brain tissue, high affinity binders (HABs), n = 4, [3H]PK11195 0.3 nM): 7.6 ± 2.2 µM
IC50 [12]: ~6.7 µM
Fraction in plasma bound [4]: 99.71%
Plasma free fraction [4]: 0.29%
AUC0‐4 h ([5]; 50 mg etifoxine single oral dose, Max of 4 participants): 83 ng·h/mL
AUC0‐4 h ([5]; 50 mg etifoxine single oral dose, Min of 4 participants): 59 ng·h/mL
Adverse events [5]: No adverse events were reported
Accumulation after multiple doses ([5]; etifoxine 50 mg TDS for 7 days, day 7 vs day 1 plasma concentration): did not find evidence for significant etifoxine accumulation; also recorded: did not find evidence for drug accumulation
concentration at 30 min [5, 23]: 4 ng/mL
concentration at 60 min [5, 24]: 8.2 ng/mL
concentration at 60 min [5, 23]: 15.9 ng/mL
concentration at 60 min [5, 25]: 6.2 ng/mL
concentration at 60 min [5, 26]: 2.4 ng/mL
concentration at 120 min [5, 24]: 29.8 ng/mL
concentration at 120 min [5, 27]: 15.5 ng/mL
concentration at 120 min [5, 23]: 33.4 ng/mL
concentration at 120 min [5, 25]: 39.4 ng/mL
concentration at 120 min [5, 26]: 30.7 ng/mL
concentration at 180 min [5, 24]: 22.9 ng/mL
concentration at 180 min [5, 27]: 24.2 ng/mL
concentration at 180 min [5, 23]: 12.3 ng/mL
concentration at 180 min [5, 25]: 27.1 ng/mL
concentration at 180 min [5, 26]: 27.9 ng/mL
concentration at 240 min [5, 24]: 18 ng/mL
concentration at 240 min [5, 27]: 22.7 ng/mL
concentration at 240 min [5, 23]: 9.2 ng/mL
concentration at 240 min [5, 25]: 20.1 ng/mL
concentration at 240 min [5, 26]: 20.1 ng/mL
Cmax [5, 28]: 32 ng/mL
Tmax [5, 28]: 2 h
Cmax [5, 29]: 24 ng/mL
Tmax [5, 29]: 3 h
Cmax [5, 30]: 33 ng/mL
Tmax [5, 30]: 2 h
Cmax [5, 31]: 39 ng/mL
Tmax [5, 31]: 2 h
Cmax [5, 32]: 31 ng/mL
Tmax [5, 32]: 2 h
AUC [5, 28]: 68 ng·h/mL
AUC [5, 29]: 59 ng·h/mL
AUC [5, 30]: 64 ng·h/mL
AUC [5, 31]: 83 ng·h/mL
AUC [5, 32]: 71 ng·h/mL
